Assay results from ChEMBL document CHEMBL5465560, “Selectivity Literature for EUbOPEN Chemogenomic Library” (2024).
Blank lines part the entries; values can stand above or below the compound they belong to.

Key:
[1] = target: T1, Serine/threonine-protein kinase Nek5 (Homo sapiens) (UniProt Q6P3R8); experiment: Selectivity interaction (KinomeScan (DiscoverX)) EUB0001619a NEK5; conditions: at 1 µM
T1 sequence (whole entry): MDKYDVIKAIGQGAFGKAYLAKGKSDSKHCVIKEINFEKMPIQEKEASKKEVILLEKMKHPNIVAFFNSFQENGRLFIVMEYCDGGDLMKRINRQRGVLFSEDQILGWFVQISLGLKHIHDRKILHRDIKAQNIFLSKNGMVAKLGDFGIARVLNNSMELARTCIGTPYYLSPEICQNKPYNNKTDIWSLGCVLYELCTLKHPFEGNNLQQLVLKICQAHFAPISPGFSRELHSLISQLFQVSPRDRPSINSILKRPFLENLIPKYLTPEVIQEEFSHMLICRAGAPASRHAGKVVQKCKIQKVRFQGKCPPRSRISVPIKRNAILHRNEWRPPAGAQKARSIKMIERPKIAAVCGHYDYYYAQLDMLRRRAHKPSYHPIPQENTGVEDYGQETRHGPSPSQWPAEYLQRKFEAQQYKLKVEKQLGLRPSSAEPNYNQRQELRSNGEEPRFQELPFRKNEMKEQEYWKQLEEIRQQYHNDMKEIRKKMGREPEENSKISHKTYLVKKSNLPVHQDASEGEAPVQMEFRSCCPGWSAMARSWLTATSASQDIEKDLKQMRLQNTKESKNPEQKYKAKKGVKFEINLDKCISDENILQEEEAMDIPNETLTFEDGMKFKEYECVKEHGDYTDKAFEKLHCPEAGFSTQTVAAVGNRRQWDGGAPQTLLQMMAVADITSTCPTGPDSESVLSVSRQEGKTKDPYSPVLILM

[2] = target: T2, Serine/threonine-protein kinase DCLK2 (Homo sapiens) (UniProt Q8N568); experiment: Selectivity interaction (Upstate Kinase Profiler service (Millipore)) EUB0000056c DCLK2; conditions: at 1 µM
T2 sequence (whole entry): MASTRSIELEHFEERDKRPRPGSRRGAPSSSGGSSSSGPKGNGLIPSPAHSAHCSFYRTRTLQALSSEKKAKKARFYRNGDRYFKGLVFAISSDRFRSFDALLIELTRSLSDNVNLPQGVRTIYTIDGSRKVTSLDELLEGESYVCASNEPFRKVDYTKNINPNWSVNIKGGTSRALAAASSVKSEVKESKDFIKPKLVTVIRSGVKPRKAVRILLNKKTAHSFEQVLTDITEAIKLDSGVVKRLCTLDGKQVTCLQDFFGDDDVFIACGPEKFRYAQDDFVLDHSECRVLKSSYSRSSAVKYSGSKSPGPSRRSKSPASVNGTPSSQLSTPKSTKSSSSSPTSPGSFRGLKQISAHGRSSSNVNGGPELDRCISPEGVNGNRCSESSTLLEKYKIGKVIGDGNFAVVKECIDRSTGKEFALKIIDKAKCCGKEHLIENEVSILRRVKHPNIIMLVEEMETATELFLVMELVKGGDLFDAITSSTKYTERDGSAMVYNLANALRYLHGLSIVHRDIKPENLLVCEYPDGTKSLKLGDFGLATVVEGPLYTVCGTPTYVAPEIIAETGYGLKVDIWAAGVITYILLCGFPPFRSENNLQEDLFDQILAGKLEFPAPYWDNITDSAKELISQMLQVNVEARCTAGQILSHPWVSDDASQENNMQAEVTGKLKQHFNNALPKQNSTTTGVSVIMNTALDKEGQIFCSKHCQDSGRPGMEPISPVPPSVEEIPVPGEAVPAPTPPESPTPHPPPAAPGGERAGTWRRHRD

[3] = target: T3, Peripheral plasma membrane protein CASK (Homo sapiens) (UniProt O14936); experiment: Selectivity interaction (KinomeScan (DiscoverX)) EUB0000666a CASK; conditions: at 10 µM
T3 sequence (whole entry): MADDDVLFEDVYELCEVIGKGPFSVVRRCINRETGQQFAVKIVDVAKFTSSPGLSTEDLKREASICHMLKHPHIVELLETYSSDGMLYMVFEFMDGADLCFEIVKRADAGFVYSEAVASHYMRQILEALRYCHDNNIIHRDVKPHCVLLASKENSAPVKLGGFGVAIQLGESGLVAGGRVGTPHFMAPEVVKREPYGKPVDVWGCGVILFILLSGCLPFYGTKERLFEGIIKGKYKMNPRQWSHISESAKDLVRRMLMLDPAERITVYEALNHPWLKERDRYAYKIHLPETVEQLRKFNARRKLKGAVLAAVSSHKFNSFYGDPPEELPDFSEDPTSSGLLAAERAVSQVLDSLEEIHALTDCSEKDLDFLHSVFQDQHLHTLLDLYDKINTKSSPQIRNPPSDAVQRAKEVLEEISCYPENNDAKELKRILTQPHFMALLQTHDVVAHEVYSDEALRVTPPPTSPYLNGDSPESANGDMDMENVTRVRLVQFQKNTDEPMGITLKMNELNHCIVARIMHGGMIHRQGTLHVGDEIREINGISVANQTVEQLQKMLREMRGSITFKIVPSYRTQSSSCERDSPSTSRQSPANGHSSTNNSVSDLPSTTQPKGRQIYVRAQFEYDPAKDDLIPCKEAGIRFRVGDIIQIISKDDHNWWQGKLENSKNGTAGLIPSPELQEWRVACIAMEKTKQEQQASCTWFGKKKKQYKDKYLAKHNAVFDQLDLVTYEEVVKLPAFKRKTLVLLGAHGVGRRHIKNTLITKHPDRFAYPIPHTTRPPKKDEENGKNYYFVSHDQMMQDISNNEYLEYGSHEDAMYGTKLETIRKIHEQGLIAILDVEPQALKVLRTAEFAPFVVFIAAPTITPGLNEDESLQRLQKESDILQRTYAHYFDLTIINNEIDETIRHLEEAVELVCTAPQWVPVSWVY

[4] = target: T4, Serine/threonine-protein kinase RIO1 (Homo sapiens) (UniProt Q9BRS2); experiment: Selectivity interaction (KinomeScan (DiscoverX)) EUB0000092b RIOK1; conditions: at 10 µM
T4 sequence (whole entry): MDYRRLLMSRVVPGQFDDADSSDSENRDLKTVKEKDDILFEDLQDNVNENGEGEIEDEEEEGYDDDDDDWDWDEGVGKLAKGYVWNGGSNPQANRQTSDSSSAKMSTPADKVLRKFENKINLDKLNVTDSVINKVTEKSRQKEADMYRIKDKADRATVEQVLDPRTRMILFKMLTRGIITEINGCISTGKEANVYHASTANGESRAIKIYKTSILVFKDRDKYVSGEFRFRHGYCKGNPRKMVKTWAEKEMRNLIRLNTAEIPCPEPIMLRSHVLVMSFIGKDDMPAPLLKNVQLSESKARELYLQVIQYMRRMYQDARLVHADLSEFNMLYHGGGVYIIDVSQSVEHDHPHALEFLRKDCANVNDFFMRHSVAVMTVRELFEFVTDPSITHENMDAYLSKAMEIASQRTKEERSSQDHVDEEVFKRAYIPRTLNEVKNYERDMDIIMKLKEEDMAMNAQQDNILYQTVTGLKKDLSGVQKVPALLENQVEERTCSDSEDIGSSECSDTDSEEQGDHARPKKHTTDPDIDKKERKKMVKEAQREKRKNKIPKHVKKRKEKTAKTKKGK

Compound: N#Cc1cccc(-c2c[nH]c3ncnc(N4CCOCC4)c23)c1
- % of control [1]: 100%

- % of inhibition [2]: -1%
Compound: Cc1ccc(-c2ccc3c(ccc4sc5c(c43)NC[C@@H](C)NC5=O)n2)cn1

Compound: O=C(NOC[C@H](O)CO)c1ccc(F)c(F)c1Nc1ccc(I)cc1F
- % of control [3]: 67%

Compound: CCC(=O)N1CCN(c2ccc(-n3c(=O)ccc4cnc5ccc(-c6cnc7ccccc7c6)cc5c43)cc2C(F)(F)F)CC1
- % of control [4]: 81%
